Earlier results in PMC7327225 (Hepatology Communications, 2020).

Tested on: β1‐containing AMPK trimers
Settings: explains failure to activate AMPK in muscle

With O=C(O)c1c[nH]c2cc(Cl)c(-c3ccc(C4(O)CCC4)cc3)cc12 [PF‐06409577] as the molecule, how does the AMPK isoform selectivity read?
The AMPK isoform selectivity was “selectivity toward β1‐containing AMPK trimers”.
